The source of these data is US20120121508A1, “RADIOLABELED CGRP ANTAGONISTS” (Merck Sharp & Dohme Corp., priority 2009, published 2012).

The target of data set [1] is T1, human CGRP receptor (CL receptor/RAMP1) (Homo sapiens, UniProt O60894+Q16602).
T1 construct: expressed in transfected cells
Kind of data set: Recombinant receptor binding assay vs [^125I]CGRP. As to the method: RECOMBINANT RECEPTOR: Human CL receptor (Genbank accession number L76380) was subcloned into the expression vector pIREShyg2 (BD Biosciences Clontech) as a 5′NheI and 3′ PmeI fragment. Human RAMP1 (Genbank accession number AJ001014) was subcloned into the expression vector pIRESpuro2 (BD Biosciences Clontech) as a 5′NheI and 3′NotI fragment. HEK 293 cells (human embryonic kidney cells; ATCC #CRL-1573) were cultured in DMEM with 4.5 g/L glucose, 1 mM sodium pyruvate and 2 mM glutamine supplemented with 10% fetal bovine serum (FBS), 100 units/mL penicillin and 100 μg/mL streptomycin, and maintained at 37° C. and 95% humidity. Cells were subcultured by treatment with 0.25% trypsin with 0.1% EDTA in HBSS. Stable cell line generation was accomplished by co-transfecting 10 μg of DNA with 30 μg Lipofectamine 2000 (Invitrogen) in 75 cm^2 flasks. CL receptor and RAMP1 expression constructs were co-transfected in equal amounts. Twenty-four hours after transfection the cells were diluted and selective medium (growth medium+300 μg/mL hygromycin and 1 μg/mL puromycin) was added the following day. […]
(§1) The octanol/water partition coefficient (Log P) of the compound of Example 1 was determined by partitioning the compound between octanol and phosphate buffer at pH 7.4 and measuring the concentration of the compound in each layer by LC-MS/MS. […]

Data set [2] has as its target T1, human CGRP receptor (CL receptor/RAMP1). Kind of data set: Recombinant receptor cAMP functional assay. The following applies: in the presence of 50% human serum. Format: cell-based. As to the method:
RECOMBINANT RECEPTOR: Human CL receptor (Genbank accession number L76380) was subcloned into the expression vector pIREShyg2 (BD Biosciences Clontech) as a 5′NheI and 3′ PmeI fragment. Human RAMP1 (Genbank accession number AJ001014) was subcloned into the expression vector pIRESpuro2 (BD Biosciences Clontech) as a 5′NheI and 3′NotI fragment. HEK 293 cells (human embryonic kidney cells; ATCC #CRL-1573) were cultured in DMEM with 4.5 g/L glucose, 1 mM sodium pyruvate and 2 mM glutamine supplemented with 10% fetal bovine serum (FBS), 100 units/mL penicillin and 100 μg/mL streptomycin, and maintained at 37° C. and 95% humidity. Cells were subcultured by treatment with 0.25% trypsin with 0.1% EDTA in HBSS. […]
RECOMBINANT RECEPTOR FUNCTIONAL ASSAY: Cells were plated in complete growth medium at 85,000 cells/well in 96-well poly-D-lysine coated plates (Corning) and cultured for ˜19 h before assay. […] Dose response curves were plotted and IC50 values determined from a 4-parameter logistic fit as defined by the equation y=((a−d)/(1+(x/c)^b)+d, where y=response, x=dose, a=max response, d=min response, c=inflection point and b=slope.
as §1

Data set [3] addresses adrenomedullin 2 receptor, CLR-RAMP3 (Homo sapiens, UniProt O60896+Q16602). Kind of data set: Adrenomedullin 2 receptor binding (selectivity). As to the method:
(§2) The octanol/water partition coefficient (Log P) of the compound of Example 1 was determined by partitioning the compound between octanol and phosphate buffer at pH 7.4 and measuring the concentration of the compound in each layer by LC-MS/MS. […] The compound of Example 1 was tested in the receptor binding and functional cell-based assays carried out in the presence and absence of human serum.

Data set [4] deals with human AMY1 receptor (CTR/RAMP1) (Homo sapiens, UniProt O60894+P30988). Kind of data set: Amylin 1 receptor binding. As to the method:
(§3) The compound of Example 1 was evaluated against the related amylin 1 (AMY1; CTR/RAMP1) and amylin 3 (AMY3; CTR/RAMP3) receptors. […] Although the compound of Example 1 binds with high affinity to the related AMY1 receptor, this is not anticipated to negatively impact the utility of this molecule as a suitable PET tracer. […] Since the methods used to quantify CGRP receptor occupancy rely primarily on the cerebellar region, the affinity of the compound of Example 1 for AMY1 receptor should not interfere with the use of the PET tracer to accurately determine CGRP receptor occupancy.

Data set [5] concerns the target T2, human AMY3 receptor (CTR/RAMP3) (Homo sapiens, UniProt O60896+P30988).
T2 sequence (P30988 25-474): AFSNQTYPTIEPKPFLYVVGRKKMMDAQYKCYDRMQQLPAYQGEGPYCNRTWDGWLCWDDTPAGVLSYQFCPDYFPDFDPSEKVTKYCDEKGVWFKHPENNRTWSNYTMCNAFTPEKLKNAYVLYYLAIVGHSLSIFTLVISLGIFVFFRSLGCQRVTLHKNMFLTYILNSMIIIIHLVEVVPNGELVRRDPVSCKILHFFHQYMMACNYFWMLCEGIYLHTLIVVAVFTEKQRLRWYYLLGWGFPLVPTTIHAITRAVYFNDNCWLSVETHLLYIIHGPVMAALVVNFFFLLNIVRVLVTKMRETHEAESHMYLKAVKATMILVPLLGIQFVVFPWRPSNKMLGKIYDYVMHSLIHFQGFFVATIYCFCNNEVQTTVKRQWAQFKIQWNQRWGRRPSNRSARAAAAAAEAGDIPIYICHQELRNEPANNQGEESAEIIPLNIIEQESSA
T2 sequence (O60896 24-148): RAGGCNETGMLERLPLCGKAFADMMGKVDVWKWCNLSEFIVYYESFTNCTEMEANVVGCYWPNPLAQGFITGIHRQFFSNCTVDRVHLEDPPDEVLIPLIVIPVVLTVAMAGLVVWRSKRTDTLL
Kind of data set: Amylin 3 receptor binding. On the procedure: as §3

Data set [6] can be described thus: Octanol/water partition coefficient (Log P). To be noted: octanol / phosphate buffer pH 7.4, LC-MS/MS. In kind it is physicochemical. As to the method:
as §2

For the next data set, the target named is T3, human P-glycoprotein (Homo sapiens, UniProt P08183).
T3 construct: expressed in transfected cells; host or cells: LLC-PK1
T3 sequence (P08183 whole entry): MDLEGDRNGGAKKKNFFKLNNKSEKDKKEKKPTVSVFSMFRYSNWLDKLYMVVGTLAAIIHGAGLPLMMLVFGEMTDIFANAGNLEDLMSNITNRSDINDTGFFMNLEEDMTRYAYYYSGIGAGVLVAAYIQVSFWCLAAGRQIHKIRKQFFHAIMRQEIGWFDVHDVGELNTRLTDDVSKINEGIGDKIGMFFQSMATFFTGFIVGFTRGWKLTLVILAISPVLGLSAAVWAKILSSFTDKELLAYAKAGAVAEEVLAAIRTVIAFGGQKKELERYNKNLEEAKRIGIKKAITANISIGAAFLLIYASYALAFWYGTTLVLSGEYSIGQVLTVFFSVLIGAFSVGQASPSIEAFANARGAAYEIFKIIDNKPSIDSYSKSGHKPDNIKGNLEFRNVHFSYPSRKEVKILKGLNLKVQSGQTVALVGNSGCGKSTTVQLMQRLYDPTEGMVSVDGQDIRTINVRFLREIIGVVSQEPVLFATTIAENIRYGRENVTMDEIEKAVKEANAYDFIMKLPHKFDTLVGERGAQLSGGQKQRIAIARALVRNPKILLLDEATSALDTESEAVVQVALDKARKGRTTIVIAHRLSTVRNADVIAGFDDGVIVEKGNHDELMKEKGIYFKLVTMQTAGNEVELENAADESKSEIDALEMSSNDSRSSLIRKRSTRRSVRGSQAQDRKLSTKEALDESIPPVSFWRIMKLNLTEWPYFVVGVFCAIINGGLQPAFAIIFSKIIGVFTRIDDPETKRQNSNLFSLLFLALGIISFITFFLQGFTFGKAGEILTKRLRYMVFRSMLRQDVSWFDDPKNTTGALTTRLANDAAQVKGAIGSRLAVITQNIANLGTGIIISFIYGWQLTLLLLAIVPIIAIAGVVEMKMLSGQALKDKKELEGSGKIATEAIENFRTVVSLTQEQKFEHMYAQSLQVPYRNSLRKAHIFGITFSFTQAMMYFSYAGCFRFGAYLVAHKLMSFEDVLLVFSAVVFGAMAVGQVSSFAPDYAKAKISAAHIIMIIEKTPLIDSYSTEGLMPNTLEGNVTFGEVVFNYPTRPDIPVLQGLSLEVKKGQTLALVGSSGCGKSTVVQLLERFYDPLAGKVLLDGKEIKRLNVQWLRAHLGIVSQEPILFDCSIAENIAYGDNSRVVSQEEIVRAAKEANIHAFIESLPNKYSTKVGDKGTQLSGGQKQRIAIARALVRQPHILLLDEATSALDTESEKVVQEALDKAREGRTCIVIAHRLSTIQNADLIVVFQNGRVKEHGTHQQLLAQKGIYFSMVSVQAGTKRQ
Kind of data set: Bidirectional transport across LLC-PK1 monolayers, human P-gp. Format: in vitro ADME. On the procedure:
(§4) The bidirectional transport of the compound of Example 1 was evaluated across mono-layers of LLC-PK1 cells over-expressing human P-glycoprotein (Ohe et al., 2003).

For data set [7], the target named is T4, human P-glycoprotein (P-gp) (Homo sapiens, UniProt P08183).
T4 construct: expressed in transfected cells; host or cells: LLC-PK1
T4 sequence (P08183 whole entry): as above
The data set is described as above. The following applies: LLC-PK1, human P-gp, read-out: B−A/A−B ratio. Format: in vitro ADME. On the procedure:
as §4

The next data set concerns rat P-gp. Kind of data set: Bidirectional transport, rat P-gp. Format: in vitro ADME. On the procedure: [The source words this procedure for another species and reports this species under the same test.] as §4
For data set [8], the system named is African green monkey P-gp. Kind of data set: Bidirectional transport, African green monkey P-gp. Format: in vitro ADME.
Data set [9] in a line: Passive permeability (Papp). In kind it is in vitro ADME. The following applies: pig, LLC-PK1, read-out: average apparent permeability coefficient (Papp). As to the method:
as §4

The next data set deals with CGRP receptor. Kind of data set: PET CGRP receptor occupancy study in rhesus monkey brain. Format: in vivo. To be noted: IV bolus plus constant infusion, Hill equation fit, ±SE. As to the method: Baseline PET scans in rhesus monkey have confirmed the uptake and expected regional distribution of the PET tracer of [^11C]-Example 1 in the brain. […] In vivo occupancy studies were carried out with the compound of Example 1 to examine the utility of the PET tracer of [^11C]-Example 1 to establish a drug plasma level/CGRP receptor occupancy relationship. To establish steady plasma levels of drug, the compound of Example 1 was administered as an IV bolus plus constant infusion starting 60 minutes before the PET tracer of [^11C]-Example 1 injection; drug infusion was continued for the duration of the scan. Dynamic PET studies were acquired for 120-min following the PET tracer of [^11C]-Example 1 IV bolus administration. CGRP receptor availability was estimated using data-driven methods to describe the PET tracer of [^11C]-Example 1 plasma-brain kinetics. For each study, the PET tracer of [^11C]-Example 1 plasma concentration was obtained from the measurement of total radioactivity in arterial plasma with correction for the fraction of intact tracer as determined by HPLC analysis.
The absence of a reference region (devoid of CGRP receptor) requires the application of tracer kinetic modeling techniques using the PET tracer of [^11C]-Example 1 arterial plasma concentration in order to accurately quantify CGRP receptor occupancy in rhesus monkey. […]

Several values for one entry are separate records, joined by “and”; a condition that tells them apart may be missing. Identical values can stand only once.

T1 sequence (Q16602 23-461): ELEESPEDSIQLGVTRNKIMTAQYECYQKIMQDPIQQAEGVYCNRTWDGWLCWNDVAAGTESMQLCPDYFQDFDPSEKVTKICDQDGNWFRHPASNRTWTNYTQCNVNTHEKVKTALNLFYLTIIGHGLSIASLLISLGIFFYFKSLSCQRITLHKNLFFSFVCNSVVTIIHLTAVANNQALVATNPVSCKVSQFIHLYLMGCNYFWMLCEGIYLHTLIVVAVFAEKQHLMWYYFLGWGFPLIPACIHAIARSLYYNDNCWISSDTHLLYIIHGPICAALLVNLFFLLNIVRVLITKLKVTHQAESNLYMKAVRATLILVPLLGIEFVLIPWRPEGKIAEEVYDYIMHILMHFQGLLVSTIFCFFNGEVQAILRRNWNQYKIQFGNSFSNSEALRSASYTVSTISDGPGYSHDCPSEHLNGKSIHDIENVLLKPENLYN
T1 sequence (O60894 27-148): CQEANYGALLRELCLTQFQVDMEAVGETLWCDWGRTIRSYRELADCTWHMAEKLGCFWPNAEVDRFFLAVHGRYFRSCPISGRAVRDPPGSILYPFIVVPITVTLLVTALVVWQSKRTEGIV
Sequence of adrenomedullin 2 receptor, CLR-RAMP3 (Q16602 23-461, one chain of several): as the sequence (Q16602 23-461) above
Sequence of human AMY1 receptor (CTR/RAMP1) (O60894 27-148, one chain of several): as the sequence (O60894 27-148) above

On to `CN1C[C@@](C)(c2cc(F)cc(F)c2)N(CC(=O)Nc2ccc3c(c2)C[C@@]2(C3)C(=O)Nc3ncccc32)C(=O)C12CCCC2` [Example 1, 2-[(8R)-8-(3,5-Difluorophenyl)-6,8-dimethyl-10-oxo-6,9-diazaspiro[4.5]dec-9-yl]-N-[(2R)-2′-oxo-1,1′,2′,3-tetrahydrospiro[indene-2,3′-pyrrolo[2,3-b]pyridin]-5-yl]acetamide], for which the Ki in data set [1] was 39 pM; in data set [3] it was 211000 pM; in [4] it was 600 pM; in data set [5], 212000 pM. Moreover, in data set [2], the IC50 came to 210 pM. The compound also yielded a logP in [6] of 3.38. The “P-gp substrate status” value is given as “not a substrate” at human P-glycoprotein (human P-gp, 5 μM); “weak substrate” on human P-glycoprotein (human P-gp, 1, 0.5 and 0.1 μM); “borderline substrate” in the data set with rat P-gp (5 μM); “weak substrate” in [8] (African green monkey P-gp, 1, 0.5 and 0.1 μM). Also, the efflux ratio at 0.1 μM in [7] (0.1 μM) is 3.5; in data set [8] (LLC-PK1, African green monkey P-gp, 0.1 μM, read-out: B−A/A−B ratio), 5.4. Moreover, the efflux ratio at 0.5 μM was determined as 2.9 in data set [7] (0.5 μM) and 4.1 in data set [8] (LLC-PK1, African green monkey P-gp, 0.5 μM, read-out: B−A/A−B ratio). Moreover, the efflux ratio at 1 μM in data set [7] (1 μM) came to 3; in data set [8] (LLC-PK1, African green monkey P-gp, 1 μM, read-out: B−A/A−B ratio), 3.9. The efflux ratio at 5 μM in data set [7] (5 μM) worked out at 1.7; with rat P-gp (LLC-PK1, read-out: B−A/A−B ratio) it was 3.1. In data set [9], the Papp amounted to 26 ×10⁻⁶ cm/s. The “Occ50: plasma level for 50% CGRP receptor occupancy” value in the data set with CGRP receptor was ~11 nM and 11 ± 3 nM.
